In patent US6413934B1, “Streptavidin mutants having secondary functional domains” (University of Washington, priority 1998, dated 2002):
Changes are numbered by the printed parent chain. Read-outs that look alike come from different tables or passages of the source.

Experiments:
[1] = target: integrin receptors (on rat aortic endothelial cells); experiment: cell-based or functional assay
[2] = tested on: Rat aortic endothelial cells; experiment: peptide inhibition of endothelial cell adhesion to FN-SA and OSTP-SA; assay type: cell-based; conditions: for inhibitory effect on cell adhesion: soluble peptide preincubated with cells 15 minutes
Protocol: To confirm that the observed cell adhesion was directly RGD dependent, inhibition studies were conducted with GRGDSP (amino acids 89 to 94 of SEQ ID NO:2), GRGESP (SEQ ID NO:8), and GRADSP (SEQ ID NO:9) peptides.
Synthetic hexapeptides GRGDSP (amino acids 89 to 94 of SEQ ID NO:2), GRGESP (SEQ ID NO:8), and GRADSP (SEQ ID NO:9) were purchased from Gibco BRL. The inhibition assay was performed with the same protocol as for the cell adhesion assay except that the cells were incubated with the peptides for 15 minutes at room temperature prior to being plated onto the protein-coated wells.

[3] = tested on: αvβ3 integrin present on the melanoma cells; experiment: peptide and antibody inhibition of melanoma cell adhesion to RGD streptavidin mutants; assay type: cell-based; conditions: human melanoma cells; antibodies at 10 μg/ml
Protocol: Melanoma cell adhesion assays on streptavidin coated polystyrene dishes were performed as described above for endothelial cell adhesion assays, except that DMEM with 0.1% BSA and 10 mM HEPES was used as culture medium and 2×10^5 cells were added to each well. Moαv cells that express high levels of αvβ3 integrin were derived from M21 melanoma cells. Adhesion assays were performed on self assembled monolayers constructed on 24 well tissue culture polystyrene dishes. The dishes were evaporated with about 400A gold, then incubated with a 0.1 mM ethanolic thiol solution of 20% biotinylated alkylthiol (BAT) and 80% polyethylene glycol (PEG) overnight. The wells were rinsed three times with 100% ethanol, blown dry with nitrogen, then incubated with 0.05 mg/ml of streptavidin in PBS (wild type or mutant) at 37° C. for one hour with side to side rocking. The protein solution was then removed, and the wells were rinsed three times with PBS before addition of cells. Antibody inhibition assays were performed essentially identically as for the RGD/RGE inhibition assays. LM609 and control were obtained from Chemicon International, Inc. (Calif.) and were used at 1:1000 dilution (10 μg/ml).

[4] = tested on: Rat aortic endothelial cells; experiment: endothelial cell adhesion assay on streptavidin-coated wells; assay type: cell-based
Protocol: Rat aortic endothelial cells were cultured in MDCB 131 media (Gibco BRL) with fetal bovine serum and used in the cell adhesion assays. Wild type and RGD streptavidin mutants were incubated in 96 well polystyrene plates overnight at 4° C. at various concentrations and then blocked with 1% BSA in PBS for 1 hour at 37° C. prior to the plating of cells (n=3). Alternatively, biotinylated BSA was incubated in the 96 wells overnight at 4° C., blocked with 1% BSA in PBS for one hour at 37° C., and then streptavidin (wild type or RGD) was incubated in the wells for one hour at 37° C. The protein solution was aspirated and the wells rinsed with sterile PBS before 50,000 cells were plated onto the protein coated wells for one hour at 37° C. The media was removed and the wells were rinsed twice with warm PBS (37° C.). The adherent cells were fixed with 4% paraformaldehyde (PFA) for 5 minutes and stained with 0.5% toluidine blue in 4% PFA for another 5 minutes at room temperature before the wells were rinsed by immersing the plate into a large bowl of tap water. The plate was dried by blotting the inverted plate onto paper towels and the remaining dye in the wells was solubilized with 1% SDS prior to reading the absorbance of the wells with a plate reader at 595 nm.

[5] = off-rate measurement with tritiated biotin; assay type: binding; conditions: 25° C., PBS pH 7.0
Protocol: Since the mutations occur in a loop opposite from the biotin binding pocket, the rational design of the molecule should obviate any effect of reducing the off-rate, or dissociation constant of streptavidin. This indeed was observed by experimental koff values for the RGD mutants that are within the standard deviation of previously calculated values for wild type streptavidin. Off-rate measurements were performed at 25° C. to quantitatively characterize the biotin affinity of the mutants and compare the results of the binding affinity of wild type streptavidin. Tritiated biotin, “hot” because it is radioactively labeled, was added to samples of the mutant proteins in a PBS solution, pH 7.0, and allowed to equilibrate for 1 to 2 hours. The off-rate reaction was then initiated by the addition of 5 μL of 15 mM “cold” biotin (non-radioactive) in PBS. As the tritiated biotin dissociated from the streptavidin mutants, aliquots were taken at fixed times and scintillation counts were performed to analyze the beta emission of the tritiated biotin. The natural logarithm of the bound tritiated fractions was plotted versus time to attain the off-rate koff, which is calculated from a linear regression of the data points.

“Fibronectin Streptavidin (streptavidin having incorporated therein RGD with flanking amino acids as in fibronectin) (designed binder)” showed an absorbance at 595 nm (adhered rat aortic endothelial cells) (absorbance at 595 nm) [1] of 0.3 and a coating concentration at saturation of cell adhesion [1] of 100 nM.

In the case of GRADSP, the “inhibitory effect on cell adhesion” value [2] is reported as “no noticeable inhibitory effect”.

In the case of GRGDSP [RGD peptide], the “inhibition of cell adhesive activity of the RGD mutants” value [3] is reported as “can be inhibited”, the “inhibitory effect on cell adhesion at 100 μm peptide” value ([2]; 100 μM peptide) is reported as “inhibited cell adhesion” and the “inhibitory effect on cell adhesion” value [2] is reported as “inhibited cell adhesion in a dose-dependent manner”.

In the case of GRGESP, the “inhibitory effect on cell adhesion” value [2] is reported as “no noticeable inhibitory effect”.

“Osteopontin Streptavidin (streptavidin having incorporated therein RGD with flanking amino acids as in osteopontin) (designed binder)” gave an absorbance at 595 nm (adhered rat aortic endothelial cells) (absorbance at 595 nm) [1] of 0.3 and a coating concentration at saturation of cell adhesion [1] of 100 nM.

With “Wild type streptavidin: naturally occurring tetrameric biotin-binding protein of Streptomyces avidinii, SEQ ID NO:1” the “cell adhesion (absorbance at 595 nm, visual inspection)” value [4] was “does not display any cell adhesion above control levels”, the “cell adhesion (absorbance at 595 nm, visual inspection)” value ([4]; listed as wild type) was “comparable to those for 1% SDS” and the koff [5] was 3.3±0.1×10^−6 /sec.

B1: FN-SA: streptavidin mutant incorporating the RGD sequence and flanking residues from fibronectin, SEQ ID NO:2 (protein)
chain: MRKIVVAAIAVSLTTVSITASASADPSKDSKAQVSAAEAGITGTWYNQLGSTFIVTAGADGALTGTYESAVGNAESRYVLTGRYDSAPGRGDSPGSGTALGWTVAWKNNYRNAHSATTWSGQYVGGAEARINTQWLLTSGTTEANAWKSTLVEHDTFTKVKPSAASIDAAKKAGVNNGNPLDAVQQ
B1 gave a koff [5] of 3.28e-06 s⁻¹.

B2: OSTP-SA: streptavidin mutant incorporating the RGD sequence and flanking residues from osteopontin, SEQ ID NO:3 (protein)
chain: B1 chain with P94V
Molecule B2 has a koff [5] of 3.13e-06 s⁻¹.
